From US20070010525A1, “Method and compositions for modulating neuropeptide hormone secretion” (priority 2005, published 2007)
Values belong to the compound of their own block, whether it stands above or below them.

Columns and labels:
[1] = system: posterior pituitary glands; assay: Oxytocin release from whole posterior pituitary glands (enzyme immunoassay); assay type: cell-based, rats
Method: Posterior pituitary. Experiments were performed on posterior pituitary glands removed from rats of either sex, ranging in age from 1-3 months. Animals were rendered unconscious by inhalation of CO2, and killed by decapitation. Glands were removed rapidly to maintain tissue health, and transferred to physiological saline (in mM: 125 NaCl, 4 KCl, 26 NaHCO3, 1.25 NaH2PO4, 2 CaCl2, 1 MgCl2, 10 glucose) bubbled with 95% O2/5% CO2 (Jackson et al., 1991, Action potential broadening and frequency-dependent facilitation of calcium signals in pituitary nerve terminals. Proc. Roy. Soc. Lond. 88:380-384). For oxytocin release experiments the pituitary was kept intact. For electrophysiological recordings, slices of posterior pituitary were cut at 70 μm with a vibratome and maintained in physiological saline. Oxytocin release. Whole pituitary glands with attached axon bundle were placed in a chamber perfused with oxygenated physiological saline. Perfusion was stopped at ˜15 min intervals during measurements, when the physiological saline was substituted with a solution of a similar composition, but with the addition of 20 mM HEPES and NaHCO3, and NaH2PO4 reduced to zero. The pH was adjusted to 7.3 with NaOH. Basal release was measured after a 5 min waiting period (immediately before the stimulus application). The axon bundle was stimulated via a large-diameter, monopolar extracellular glass electrode. Oxytocin release was evoked by a series of 5 trains of 0.2 msec, 0.2 mA current pulses with a frequency of 25 Hz and a duration of 10 seconds. Trains were applied at 1 min intervals. Evoked release was measured 5 minutes after the end of stimulation by gently mixing the bath with a micropipette and collecting 10-20 μL samples in the vicinity of the tissue. Three separate samples were collected for each measurement (including basal release control). Perfusion of the oxygenated physiological saline was restored immediately after sample collection and sildenafil was added to the bath solution for 30-60 min. Recordings of the sildenafil effect on basal and evoked release were then repeated as described above. To control for possible rundown of release, measurements of sildenafil effects were in some cases substituted by the second control measurements. Oxytocin was measured in collected fluid using the Correlate-EIA enzyme immunoassay kit (Assay Designs, Ann Arbor, Mich.). Oxytocin concentration was inversely proportional to the yellow color generated by the immunoassay and was scanned into the computer using an automated micro plate reader at 405 nm. Actual oxytocin concentration was determined with a standard curve measured for each sample plate.

[2] = system: BK channels in pituitary nerve terminals; assay: Patch clamp recordings of potassium current in posterior pituitary slices after photolysis of caged cGMP; assay type: cell-based, rats; details: slices bathed in 15 μM sildenafil, control recovered in about 3 minutes
Method: Posterior pituitary. Experiments were performed on posterior pituitary glands removed from rats of either sex, ranging in age from 1-3 months. Animals were rendered unconscious by inhalation of CO2, and killed by decapitation. Glands were removed rapidly to maintain tissue health, and transferred to physiological saline (in mM: 125 NaCl, 4 KCl, 26 NaHCO3, 1.25 NaH2PO4, 2 CaCl2, 1 MgCl2, 10 glucose) bubbled with 95% O2/5% CO2 (Jackson et al., 1991, Action potential broadening and frequency-dependent facilitation of calcium signals in pituitary nerve terminals. Proc. Roy. Soc. Lond. 88:380-384). For oxytocin release experiments the pituitary was kept intact. For electrophysiological recordings, slices of posterior pituitary were cut at 70 μm with a vibratome and maintained in physiological saline. Electrophysiology. Recordings of K^+ current were made with patch pipettes filled with (in mM) 130 KCl, 10 NaCl, 10 HEPES, 4 Mg-ATP, 0.3 GTP, 5 EGTA, pH 7.3. Individual nerve terminals were identified in an upright DIC microscope, Jackson, 1993. Passive current flow and morphology in the terminal arborizations of the posterior pituitary. J. Neurophysiol. 69, 692-702, and voltage or current clamped with an EPC-7 patch clamp amplifier. […] The component of potassium current corresponding to BK channels (seen at the end of a 200 msec voltage step from −80 to 50 mV) was determined for each pulse. […]

pituitary nerve terminal = details: after 5 or 10 seconds of high frequency stimulation; control ~30%; cited from earlier work
[3] = 7-NI 100 μM with sildenafil 10 μM

effect on sildenafil-induced increase in basal oxytocin release [1, 3]: blocked
effect on sildenafil-induced increase in evoked oxytocin release [1, 3]: blocked
Compound: O=[N+]([O-])c1cccc2cn[nH]c12 [7-NI, 7-nitorindazol]

basal oxytocin release ([1]; sildenafil 10 μM, 30-60 min in bath): insignificant increase
evoked oxytocin release ([1]; sildenafil 10 μM, electrical stimulation of axon bundle): large and significant increase
Compound: CCCc1nn(C)c2c(=O)[nH]c(-c3cc(S(=O)(=O)N4CCN(C)CC4)ccc3OCC)nc12 [Sildenafil, 5-[2-ethoxy-5-(4-methyl-1-piperazinylsulphonyl)phenyl]-1-methyl-3-n-propyl-1,6-dihydro-7H-pyrazolo [4,3-d]pyrimidin-7-one]
recovery of the cGMP-induced increase in potassium current [2]: greatly slowing the recovery
recovery of the cGMP-induced increase in potassium current ([2]; listed as sildenafil): failed to recover

Compound: Nc1nc2c(ncn2[C@@H]2O[C@@H]3COP(=O)(O)O[C@H]3[C@H]2O)c(=O)[nH]1 [cGMP]
success rate of stimulus pulses evoking action potentials (pituitary nerve terminal): ~60%
